# Earlier results, collected in patent US20070010756A1 (priority 2005, published 2007).
# System: patients
# Settings: in vivo
smiles,measurement,value
CC(C)c1cccc(C(C)C)c1O [propofol],BIS value at which 50 percent of the patients had lost consciousness (95 percent confidence interval),61 (59-62)
same,Response Entropy (RE) value at which 50 percent of the patients had lost consciousness (95 percent confidence interval),70 (68-72)
same,State Entropy (SE) value at which 50 percent of the patients had lost consciousness (95 percent confidence interval),64 (62-66)
